Assay results taken from patent US20230145342A1, “COMBINATORY TREATMENT” (AALTO UNIVERSITY FOUNDATION SR, priority 2020, published 2023).
“Also recorded” adds a separate entry of the source.

Experiments:
[1] = Dye displacement (competitive-binding) assay between P[5]a host and HSL guests; details: HSL guest titrated against P[5]a host with bound fluorescent dye
From the text: The addition of a HSL “[…]” displaces the […] from the cavity again, resulting in a shift back to 468 nm.
To measure the binding affinity between the macrocyclic “Host” P[5]a and different homoserine lactone “guests” a competitive-binding assay was used. In this case, a “guest” HSL solution is titrated against a solution of the P[5]a “host”, which has a fluorescent dye bound in its cavity, […], which has a known affinity for the P[5]a. The ratio of P[5]a to HSL enables calculation of the affinity.

[2] = tested on: MDR-Acinetobacter baumannii 5542; assay: Resistance profile of strain (Table 3); assay type: cell-based; details: strain 5542 A. baumannii
[3] = tested on: Pseudomonas aeruginosa 2798 (ATCC 2798); assay: Resistance profile of strain (Table 3); assay type: cell-based; details: strain 2798 (ATCC 2798)
From the text: (§1) The effect of P[5]a on the penetration and efficacy of coadministered antibiotics Amikacin (a), Cefepime (b), Ceftazidime (c) and Meropenem (d) in MDR resistant clinical isolates were studied.

[4] = tested on: Pseudomonas aeruginosa 5542; assay: Resistance profile of strain (Table 3); assay type: cell-based; details: strain 5542 P. aeruginosa
From the text: as §1

[5] = tested on: Pseudomonas aeruginosa 5550; assay: Resistance profile of strain (Table 3); assay type: cell-based; details: strain 5550
From the text: as §1

[6] = tested on: Pseudomonas aeruginosa 5832; assay: Resistance profile of strain (Table 3); assay type: cell-based; details: strain 5832
From the text: as §1

[7] = tested on: Pseudomonas aeruginosa 5834; assay: Resistance profile of strain (Table 3); assay type: cell-based; details: strain 5834
From the text: as §1

[8] = tested on: Pseudomonas aeruginosa 5827; assay: Resistance profile of strain (Table 3); assay type: cell-based; details: strain 5827
[9] = tested on: Pseudomonas aeruginosa 5539; assay: Resistance profile of strain (Table 3); assay type: cell-based; details: strain 5539
P. aeruginosa PAO1 = assay: Antibiotic resistance buildup, daily MIC over 14 consecutive days; assay type: cell-based, Pseudomonas aeruginosa; details: coadministration of P[5]a with the antibiotic, 14-day period
From the text: Area below the yellow line means that the bacterium is classified as susceptible to the antibiotic. The area in between yellow and red means that the bacterium is intermediate susceptible to the antibiotic. The area above the red line means that the bacterium is classified as resistant to the antibiotic (According to the “Performance Standards for Antimicrobial Susceptibility Testing”, which is maintained by the Clinical and Laboratory Standards Institute).
Because of this, a combined administration of P[5]a with a variety of antibiotics was tested. MIC values with two different antibiotics, meropenem and cefepime (FIG. 2) were tested, over a period of 14 consecutive days (which more than surpasses the length of normal treatments, 7-10 days), when administered together with and without 2.5 mM P[5]a.
In this experiment, the minimum inhibitory concentration MIC was analyzed daily for 14 consecutive days, and the highest MIC values (so the highest concentration of antibiotic where the bacteria still grew) was used for the next day. This way, the buildup of resistance over time can be monitored. In FIG. 2, the area below the yellow line means that the bacterium is classified as susceptible to the antibiotic, the area in between yellow and red means that the bacterium is intermediate susceptible to the antibiotic and the area above the red line means that the bacterium is classified as resistant to the antibiotic (According to the “Performance Standards for Antimicrobial Susceptibility Testing”, which is maintained by the Clinical and Laboratory Standards Institute).
The effect of P[5]a on encountering resistance development in a pathogenic Gram-negative bacterium, Pserudomonas aeruginosa, strain PA01 was studied over 14-day period. The development of resistance over 14 continuous days by the pathogen PAO1 towards treatment with four clinically relevant antibiotics (meropenem, cefepime, aztreonam and tobramycin) and P[5]a was compared. […] In all antibiotic treatments, reduced susceptibility was observed from day 4 onwards, with complete resistance to all treatments after 12 days.
The effect of P[5]a on the enhancement of the penetration of coadministered antibiotics having intracellular targets (aztreonam, cefepime, meropenem and tobramycin) was studied over 14-day period in a pathogenic Gram-negative bacterium, Pserudomonas aeruginosa, strain PA01. […] MIC values were categorized in three groups according to the Clinical and Laboratory Standards Institute: susceptible, intermediate susceptible and resistant.

## CCCCCCCCCCCC(O)CC(=O)N[C@@H]1CCOC1=O (stereo partly shown) [3-OH—C14 HSL]
[1]
  displacement of dye from P[5]a cavity (binding affinity): high binding affinity; also recorded: strong displacement

## CCCC(=O)CC(=O)N[C@H]1CCOC1=O [3-Oxo-C6]
[1]
  displacement of dye from P[5]a cavity (binding affinity): Poor displacement

## CCCCCC(=O)CC(=O)N[C@H]1CCOC1=O [3-Oxo-C8 HSL]
[1]
  displacement of dye from P[5]a cavity (binding affinity): Medium displacement

## CCCCCCCCCC(=O)CC(=O)NC1CCOC1=O (stereo not shown) [3-Oxo-C12 HSL]
[1]
  displacement of dye from P[5]a cavity (binding affinity): high binding affinity; also recorded: strong displacement

## CC1(C)S[C@@H]2[C@H](NC(=O)[C@H](N)c3ccccc3)C(=O)N2[C@H]1C(=O)O [Ampicillin]
[2]
  Antibiotic resistance (category): Resistant to Amikacin, Amoxicillin-clavulanate, Ampicillin,

## CC[C@H]1OC(=O)[C@H](C)[C@@H](O[C@H]2C[C@@](C)(OC)[C@@H](O)[C@H](C)O2)[C@H](C)[C@@H](O[C@@H]2O[C@H](C)C[C@H](N(C)C)[C@H]2O)[C@](C)(O)C[C@@H](C)CN(C)[C@H](C)[C@@H](O)[C@]1(C)O [Azithromycin, azithromycin]
[2]
  Antibiotic resistance (category): Resistant to Amikacin, Amoxicillin-clavulanate, Ampicillin,

## CCCC(=O)N[C@H]1CCOC1=O [C4]
[1]
  displacement of dye from P[5]a cavity (binding affinity): Poor displacement

## CC1=C(C(=O)O)N2C(=O)[C@@H](NC(=O)[C@H](N)c3ccccc3)[C@H]2SC1 [Cefalexin]
[2]
  Antibiotic resistance (category): Resistant to Amikacin, Amoxicillin-clavulanate, Ampicillin,

## C[C@@H](O)[C@H]1C(=O)N2C(C(=O)O)=C(S[C@@H]3CN[C@H](CNS(N)(=O)=O)C3)[C@H](C)[C@H]12 [Doripenem, doripenem]
[3]
  Antibiotic resistance (category): Aztreonam & Cefepime, Resistant to Ceftazidime, Cirpofloxacin,

## C[C@@H](O)[C@H]1C(=O)N2C(C(=O)O)=C(S[C@@H]3CN[C@H](C(=O)Nc4cccc(C(=O)O)c4)C3)[C@H](C)[C@H]12 [Ertapenem, ertapenem]
[2]
  Antibiotic resistance (category): Resistant to Amikacin, Amoxicillin-clavulanate, Ampicillin,

## Cc1cc(NS(=O)(=O)c2ccc(N)cc2)no1 [Sulfamethoxazole]
[2]
  Antibiotic resistance (category): Resistant to Amikacin, Amoxicillin-clavulanate, Ampicillin,

## CN(C)c1cc(NC(=O)CNC(C)(C)C)c(O)c2c1C[C@H]1C[C@H]3[C@H](N(C)C)C(O)=C(C(N)=O)C(=O)[C@@]3(O)C(O)=C1C2=O [Tigecycline]
[2]
  Antibiotic resistance (category): Resistant to Amikacin, Amoxicillin-clavulanate, Ampicillin,

## NCC[C@H](O)C(=O)N[C@@H]1C[C@H](N)[C@@H](O[C@H]2O[C@H](CN)[C@@H](O)[C@H](O)[C@H]2O)[C@H](O)[C@H]1O[C@H]1O[C@H](CO)[C@@H](O)[C@H](N)[C@H]1O [amikacin, Amikacin]
[2]
  Antibiotic resistance (category): Resistant to Amikacin, Amoxicillin-clavulanate, Ampicillin,
[3]
  Antibiotic resistance (category): Susceptible
[4]
  Antibiotic resistance (category): intermediate susceptible
  Antibiotic resistance (value given with the category, MIC): 16 µg
[5]
  Antibiotic resistance (category): Intermediate susceptible
  Antibiotic resistance (value given with the category, MIC): 32 µg
[6]
  Antibiotic resistance (category): Intermediate susceptible
  Antibiotic resistance (value given with the category, MIC): 16 µg
[7]
  Antibiotic resistance (category): intermediate susceptible
  Antibiotic resistance (value given with the category, MIC): 16 µg
[8]
  Antibiotic resistance (category): Intermediate susceptible
  Antibiotic resistance (value given with the category, MIC): 32 µg
[9]
  Antibiotic resistance (category): Susceptible
  Antibiotic resistance (value given with the category, MIC): 8 µg

## C[C@H]1[C@H](NC(=O)/C(=N\OC(C)(C)C(=O)O)c2csc(N)n2)C(=O)N1S(=O)(=O)O [aztreonam]
P. aeruginosa PAO1
  development of resistance by the pathogen to the respective antibiotic: greatly slowed
[3]
  Antibiotic resistance (category): Intermediate susceptible

## CO/N=C(\C(=O)N[C@@H]1C(=O)N2C(C(=O)O)=C(COC(N)=O)CS[C@H]12)c1ccco1 [cefurixome]
[9]
  Antibiotic resistance (category): resistant

## C[C@@H](O)[C@H]1C(=O)N2C(C(=O)O)=C(S[C@@H]3CN[C@H](C(=O)N(C)C)C3)[C@H](C)[C@H]12 [meropenem, Meropenem]
P. aeruginosa PAO1
  development of resistance by the pathogen to the respective antibiotic: greatly slowed
[2]
  Antibiotic resistance (category): Resistant to Amikacin, Amoxicillin-clavulanate, Ampicillin,
[3]
  Antibiotic resistance (category): Aztreonam & Cefepime, Resistant to Ceftazidime, Cirpofloxacin,
[4]
  Antibiotic resistance (category): resistant
  Antibiotic resistance (value given with the category, MIC): 8 µg
[5]
  Antibiotic resistance (category): resistant
  Antibiotic resistance (value given with the category, MIC): 8 µg
[6]
  Antibiotic resistance (category): resistant
  Antibiotic resistance (value given with the category, MIC): 8 µg
[7]
  Antibiotic resistance (category): resistant
  Antibiotic resistance (value given with the category, MIC): cefepime 64 ug, ceftazidime 64 ug and meropenem 64 ug
[8]
  Antibiotic resistance (category): resistant
  Antibiotic resistance (value given with the category, MIC): 16 µg
[9]
  Antibiotic resistance (category): resistant
  Antibiotic resistance (value given with the category, MIC): 8 µg

## NC[C@H]1O[C@H](O[C@H]2[C@H](O)[C@@H](O[C@H]3O[C@H](CO)[C@@H](O)[C@H](N)[C@H]3O)[C@H](N)C[C@@H]2N)[C@H](N)C[C@@H]1O [tobramycin]
P. aeruginosa PAO1
  development of resistance by the pathogen to the respective antibiotic: greatly slowed
[2]
  Antibiotic resistance (category): Resistant to Amikacin, Amoxicillin-clavulanate, Ampicillin,
[9]
  Antibiotic resistance (category): resistant

## Amoxicillin-clavulanate
[2]
  Antibiotic resistance (category): Resistant to Amikacin, Amoxicillin-clavulanate, Ampicillin,

## Colistin
[3]
  Antibiotic resistance (category): Susceptible

## Piperacillin-tazobactam
[2]
  Antibiotic resistance (category): Resistant to Amikacin, Amoxicillin-clavulanate, Ampicillin,
[3]
  Antibiotic resistance (category): Aztreonam & Cefepime, Resistant to Ceftazidime, Cirpofloxacin,
[9]
  Antibiotic resistance (category): resistant
